Experimental data as given in patent EP2589383A1 (Max-Planck-Gesellschaft zur Förderung der Wissenschaften …, priority 2011, dated 2013).

Target: T1, FLAG-mTOR (Homo sapiens, UniProt P42345)
T1 construct: expressed in transfected cells; host or cells: HEK-293
Assay: Co-immunoprecipitation of FLAG-mTOR and endogenous FKBPs in HEK-293 cells
Format: cell-based
Settings: overexpressed mTOR, 25 nM, 30 minutes prior to lysis
Method: Next mammalian cells were analyzed for a rapamycin-mediated interaction of mTOR and FKBPs. Co-Immunoprecipitation experiments were performed. In detail, the mammalian expression vector pcDNA-3, containing a FLAG-tagged mTOR cDNA sequence, was introduced into HEK-293 cells by standard Lipofectamine transfection. After 48 h, cells were washed twice with TBS and lysed in lysis buffer (40 mM Hepes, pH 7.5; 120 mM NaCl; 1 mM EDTA; 10 mM pyrophosphate; 10 mM glycerophosphate; 0.5 mM orthovanadate; 50 mM NaF; 0.3% (w/v) CHAPS / 1% (v/v) Triton-100; 1% (v/v) protease inhibitor mix) by shaking at 1000 rpm at 4°C for 20 minutes. After 20 minutes of centrifugation at 14.000 rpm and 4°C, the supernatant was collected, and total protein was determined by Bradford Assay. […] Beads were pelleted and washed 4 times with lysis buffer. Finally, beads were directly boiled after addition of an equal amount of SDS sample buffer for 5 minutes. Extracts were subjected to SDS-PAGE and immunoblotting.

Structure (SMILES): C=CC[C@@H]1/C=C(\C)C[C@H](C)C[C@H](OC)[C@H]2O[C@@](O)(C(=O)C(=O)N3CCCC[C@H]3C(=O)O[C@H](/C(C)=C/[C@@H]3CC[C@@H](O)[C@H](OC)C3)[C@H](C)[C@@H](O)CC1=O)[C@H](C)C[C@@H]2OC [Tacrolimus]
- interaction of mTOR with endogenous FKBP12, FKBP51 and FKBP52 (co-precipitation): No interaction was observed
